Experimental data as given in publication PMC6039436, “Radiobrominated benzimidazole-quinoline derivatives as Platelet-derived growth factor receptor beta (PDGFRβ) imaging probes” (Scientific Reports, 2018).
Entries after “also recorded” stand apart in the source; their conditions may differ.

What was measured:
BxPC3-luc tumor = test: In vivo blocking study in tumor-bearing mice; parameters: species or system BALB/c nu/nu mice; conditions: 1 h postinjection
Procedure: The tumor uptake of both the control and blocking groups was 1.61 ± 0.24 and 0.96 ± 0.20% ID/g, respectively. Thus, the figures are shown as not only % ID/g but also as tumor-to-blood ratio.
Figure 7 (a) Tumor uptake and (b) tumor/blood uptake ratios of [^77Br]2 and [^125I]4 at 1 h postinjection with 1 (40 mg/kg) (blocking group) or no treatment control group. Data were presented as means ± SD for three or four mice. Significance was determined using an unpaired Student’s t-test (^*p < 0.05, ^**p < 0.01).
For in vivo blocking studies, the tumor-bearing mice were intraperitoneally injected with 200 µL of 1 (40 mg/kg in 15% ethanol and 85% water) 1 h before intravenous injection of 100 µL of saline solution containing [^77Br]2 and [^125I]4 or [^77Br]3 and [^125I]5 (74 kBq, respectively), 1% tween-80 and 10% ethanol. At 1 h postinjection of radiotracers, the mice were sacrificed.
Tissues in mice were resected and weighed. The radioactivity of the tissues was counted by a gamma counter and counts were corrected for background radiation. The data were expressed as percent injection dose per gram tissue (%ID/g).

[1] = system: BxPC3-luc cells (PDGFRβ-positive); test: Cellular uptake study (double tracer method); format: cell-based; conditions: BxPC3-luc (PDGFRβ-positive) vs MCF7 (PDGFRβ-negative), 0.5–4 h
Procedure: Figure 5 Cellular uptake study. Time-dependent accumulation of (a) [^77Br]2 and [^125I]4 (b) [^77Br]3 and [^125I]5 in BxPC3-luc and MCF7 cells. Data were presented as mean ± SD for three samples.
Radiotracer uptake experiments in tumor cells were performed using BxPC3-luc and MCF7 cell lines. To compare the uptake between radiobrominated compounds, [^77Br]2 and [^77Br]3, and the corresponding radioiodinated compounds, [^125I]4 and [^125I]5, the cellular uptake experiments were performed by a double tracer method as described previously with a slight modification[30],[31],[35]. Briefly, the cells were seeded in RPMI 1640 medium containing 10% FBS and antibiotics on six-well plates (2 × 10^5 cells/well) for 24 h in a 5% CO2 incubator at 37 °C. After removal of medium, cells were incubated in medium without FBS containing [^77Br]2 (3.7 kBq/well) and [^125I]4 (3.7 kBq/well) or [^77Br]3 (3.7 kBq/well) and [^125I]5 (3.7 kBq/well) and tween-80 (0.1%) for 0.5, 1, 2 and 4 h. Radioiodinated compounds were prepared as described previously][24]. Cells were washed with ice-cold 1 mL of PBS and dissolved using 0.5 mL of 1 M NaOH and wells were washed with 1 M NaOH aqueous solution (0.5 mL). The radioactivity of pooled basic fractions was counted by a gamma counter. A range between 16 and 71 keV was used for measuring ^125I and between 95 and 700 for ^77Br. When radioactivity of ^77Br was counted, the crossover of ^125I activity into the ^77Br channel was negligible. More than one month after the experiment, the radioactivity of ^125I was determined because at that time ^77Br has been decayed and its radioactivity was negligible. The protein in the cell was quantified by a BCA Protein Assay Kit. All data were expressed as %dose/µg protein.

Tumor-to-blood ratio, blocking group vs control (BxPC3-luc tumor; pretreatment with 1 (40 mg/kg))	Tumor uptake, blocking group (BxPC3-luc tumor; pretreatment with 1 (40 mg/kg, intraperitoneal, 1 h before))	Structure (SMILES)	Cellular uptake in BxPC3-luc cells [1]
significantly reduced	0.96 ± 0.20 % ID/g	COCCOc1ccc2c(c1)ncn2-c1ccc2c([77Br])ccc(N3CCC(N)CC3)c2n1 [[^77Br]2, [^77Br]1-{5-Bromo-2-[5-(2-methoxyethoxy)-1H-benzo[d]imidazol-1-yl]quinoline-8-yl}piperidin-4-amine]	higher than that in MCF7 cells; also recorded: higher uptake of [^77Br]2 than that of [^77Br]3
–	–	COCCOc1ccc2c(c1)ncn2-c1ccc2cccc(N3CCC(NC(=O)c4cccc([77Br])c4)CC3)c2n1 [[^77Br]3, [^77Br]-N-3-bromobenzoyl-1-{2-[5-(2-methoxyethoxy)-1H-benzo[d]imidazol-1-yl]quinolin-8-yl}-piperidin-4-amine]	more highly accumulated in BxPC3-luc cells than in MCF7 cells
